Source: patent US7709636B2, “Pyrazole sulfonylurea compound and herbicide” (Nissan Chemical Industries, Ltd., priority 2004, dated 2010)

Key:
Echinochloa crus-galli [1] = test: Herbicidal effect test in submerged condition by treatment during weed-growth stage (1); format: in vivo; conditions: 0.64 g/a, treated at 1st to 2nd leaf stage, 3 weeks after treatment
Protocol: (§1) Herbicidal Effect Test in Submerged Condition by Treatment During Weed-Growth Stage (1) After alluvial soil was placed in a styrol cup of 1/30000 are, water was poured therein and mixed, and adjusted to a submerged condition of water depth 4 cm. After seeds of Echinochloa crus-galli, Scirpus juncoides and Monochoria vaginalis were sown in the cup, the plants were grown by putting the cup in a green house at 25 to 30° C. When Echinochloa crus-galli, Scirpus juncoides and Monochoria vaginalis reached 1st to 2nd leaf stage, the wettable powder of the present invention prepared according to Formulation Example 1 was diluted with water so as to give a predetermined formulation amount, and the surface of the water was treated with the diluted wettable powder. The herbicidal effect for each plant was investigated 3 weeks after treatment with the herbicide according to the criteria indicated in Test Example 1.

Scirpus juncoides [2] = test: as above; format: in vivo; conditions: 0.64 g/a, treated at 1st to 2nd leaf stage, 3 weeks after treatment
Protocol: as §1

Monochoria vaginalis [3] = test: as above; format: in vivo; conditions: 0.64 g/a, treated at 1st to 2nd leaf stage, 3 weeks after treatment
Protocol: as §1

direct sown rice [4] = test: Herbicidal effect test by soil treatment; format: in vivo, Oryza sativa; conditions: 1.6 g/a, 3 weeks after treatment
Text: (§2) Herbicidal Effect Test by Soil Treatment
(§3) Sterilized diluvial soil was placed in a plastic box having a size of length 21 cm, width 13 cm and depth 7 cm, seeds Echinochloa crus-galli, Digitaria adscendes, Setaria viridis, Avena fatua, Black-grass, Abutilon avicennae, Ambrosia elatior, Amaranthus retroflexus, Chenopodium album, Polygonum blumei, Stellaria media, Zea mays (corn), Glycine max (soybean), Oryza sativa (rice), Triticum aestivum (wheat) and Beta vulgaris (beat) were sown interspatially, covered with about 1.5 cm of soil, and then the wettable powder of the present invention prepared according to Formulation Example 1 was diluted with water so as to give a predetermined formulation amount, and the surface of the soil was uniformly treated with the diluted wettable powder by use of a small-sized spray. The herbicidal effect for each plant was investigated 3 weeks after treatment with the herbicide according to the criteria indicated in Test Example 1.

Ambrosia elatior [5] = test: Herbicidal effect test by soil treatment; format: in vivo; conditions: 1.6 g/a, 3 weeks after treatment
Text: as §2, §3

Echinochloa crus-galli [6] = test: Herbicidal effect test by soil treatment; format: in vivo; conditions: 1.6 g/a, 3 weeks after treatment
Text: as §2, §3

[7] = test system: Triticum aestivum (wheat); test: Herbicidal effect test by soil treatment; format: in vivo; conditions: 1.6 g/a, 3 weeks after treatment
Text: as §2, §3

Black-grass = test: Herbicidal effect test by soil treatment; format: in vivo; conditions: 1.6 g/a, 3 weeks after treatment
Text: as §2, §3

Abutilon avicennae [8] = test: Herbicidal effect test by soil treatment; format: in vivo; conditions: 1.6 g/a, 3 weeks after treatment
Text: as §2, §3

Chenopodium album [9] = test: Herbicidal effect test by soil treatment; format: in vivo; conditions: 1.6 g/a, 3 weeks after treatment
Text: as §2, §3

Stellaria media [10] = test: Herbicidal effect test by soil treatment; format: in vivo; conditions: 1.6 g/a, 3 weeks after treatment
Text: as §2, §3

corn (Zea mays) [11] = test: Herbicidal effect test by soil treatment; format: in vivo; conditions: 1.6 g/a, 3 weeks after treatment
Text: as §2, §3

Setaria viridis [12] = test: Herbicidal effect test by soil treatment; format: in vivo; conditions: 1.6 g/a, 3 weeks after treatment
Text: as §2, §3

Avena fatua [13] = test: Herbicidal effect test by soil treatment; format: in vivo; conditions: 1.6 g/a, 3 weeks after treatment
Text: as §2, §3

Digitaria adscendes [14] = test: Herbicidal effect test by soil treatment; format: in vivo; conditions: 1.6 g/a, 3 weeks after treatment
Text: as §2, §3

Beta vulgaris (beet) [15] = test: Herbicidal effect test by soil treatment; format: in vivo; conditions: 1.6 g/a, 3 weeks after treatment
Text: as §2, §3

soybean (Glycine max) [16] = test: Herbicidal effect test by soil treatment; format: in vivo; conditions: 1.6 g/a, 3 weeks after treatment
Text: as §2, §3

Polygonum blumei [17] = test: Herbicidal effect test by soil treatment; format: in vivo; conditions: 1.6 g/a, 3 weeks after treatment
Text: as §2, §3

Amaranthus retroflexus [18] = test: Herbicidal effect test by soil treatment; format: in vivo; conditions: 1.6 g/a, 3 weeks after treatment
Text: as §2, §3

Echinochloa crus-galli [19] = test: Herbicidal effect test in submerged condition by treatment before weed-generation (1); format: in vivo; conditions: 0.64 g/a, water surface treated on day of sowing, 3 weeks after treatment
Text: (§4) Herbicidal Effect Test in Submerged Condition by Treatment Before Weed-Generation (1)
(§5) After alluvial soil was placed in a styrol cup of 1/30000 are, water was poured therein and mixed, and adjusted to a submerged condition of water depth 4 cm. After seeds of Echinochloa crus-galli, Scirpus juncoides and Monochoria vaginalis were sown in the cup, rice seedlings at 2.5th leaf stage were transplanted. On the day when the seeds were sown, the wettable powder of the present invention prepared according to Formulation Example 1 was diluted with water so as to give a predetermined formulation amount, and the surface of the water was treated with the diluted wettable powder. The plants were grown by putting the cup in a green house at 25 to 30° C., and investigated on herbicidal effect against each weed 3 weeks after treatment with the herbicide according to the following criteria.
(§6) 5 Herbicidal rate 90% or more (almost complete death)
(§7) 4 Herbicidal rate 70% or more and less than 90%
(§8) 3 Herbicidal rate 40% or more and less than 70%
(§9) 2 Herbicidal rate 20% or more and less than 40%
(§10) 1 Herbicidal rate 5% or more and less than 20%
(§11) 0 Herbicidal rate 5% or less (little effect)

Scirpus juncoides [20] = test: as above; format: in vivo; conditions: 0.64 g/a, water surface treated on day of sowing, 3 weeks after treatment
Text: as §4, §5, §6, §7, §8, §9, §10, §11

Monochoria vaginalis [21] = test: as above; format: in vivo; conditions: 0.64 g/a, water surface treated on day of sowing, 3 weeks after treatment
Text: as §4, §5, §6, §7, §8, §9, §10, §11

direct sown rice [22] = test: Herbicidal effect test by foliage treatment; format: in vivo, Oryza sativa; conditions: 1.6 g/a; foliage treatment after growth of 14 days; 3 weeks after treatment
Text: (§12) Herbicidal Effect Test by Foliage Treatment
(§13) Sterilized diluvial soil was placed in a plastic box having a size of length 21 cm, width 13 cm and depth 7 cm, seeds of Echinochloa crus-galli, Digitaria adscendes, Setaria viridis, Avena fatua, Black-grass, Abutilon avicennae, Ambrosia elatior, Amaranthus retroflexus, Chenopodium album, Polygonum blumei, Stellaria media, Zea mays, Glycine max, Oryza sativa, Triticum aestivum and Beta vulgaris were sown interspatially, covered with about 1.5 cm of soil, and then the plants were grown by putting the box in a green house at 25 to 30° C. After growth of 14 days, the wettable powder of the present invention prepared according to Formulation Example 1 was diluted with water so as to give a predetermined formulation amount, and the foliage part was uniformly treated with the diluted wettable powder by use of a small-sized spray. The herbicidal effect for each plant was investigated 3 weeks after treatment with the herbicide according to the criteria indicated in Test Example 1.

Ambrosia elatior [23] = test: Herbicidal effect test by foliage treatment; format: in vivo; conditions: 1.6 g/a; foliage treatment after growth of 14 days; 3 weeks after treatment
Text: as §12, §13

Echinochloa crus-galli [24] = test: Herbicidal effect test by foliage treatment; format: in vivo; conditions: 1.6 g/a; foliage treatment after growth of 14 days; 3 weeks after treatment
Text: as §12, §13

[25] = test system: Triticum aestivum (wheat); test: Herbicidal effect test by foliage treatment; format: in vivo; conditions: 1.6 g/a; foliage treatment after growth of 14 days; 3 weeks after treatment
Text: as §12, §13

Abutilon avicennae [26] = test: Herbicidal effect test by foliage treatment; format: in vivo; conditions: 1.6 g/a; foliage treatment after growth of 14 days; 3 weeks after treatment
Text: as §12, §13

Chenopodium album [27] = test: Herbicidal effect test by foliage treatment; format: in vivo; conditions: 1.6 g/a; foliage treatment after growth of 14 days; 3 weeks after treatment
Text: as §12, §13

Stellaria media [28] = test: Herbicidal effect test by foliage treatment; format: in vivo; conditions: 1.6 g/a; foliage treatment after growth of 14 days; 3 weeks after treatment
Text: as §12, §13

corn (Zea mays) [29] = test: Herbicidal effect test by foliage treatment; format: in vivo; conditions: 1.6 g/a; foliage treatment after growth of 14 days; 3 weeks after treatment
Text: as §12, §13

Setaria viridis [30] = test: Herbicidal effect test by foliage treatment; format: in vivo; conditions: 1.6 g/a; foliage treatment after growth of 14 days; 3 weeks after treatment
Text: as §12, §13

Avena fatua [31] = test: Herbicidal effect test by foliage treatment; format: in vivo; conditions: 1.6 g/a; foliage treatment after growth of 14 days; 3 weeks after treatment
Text: as §12, §13

Digitaria adscendes [32] = test: Herbicidal effect test by foliage treatment; format: in vivo; conditions: 1.6 g/a; foliage treatment after growth of 14 days; 3 weeks after treatment
Text: as §12, §13

Beta vulgaris (beet) [33] = test: Herbicidal effect test by foliage treatment; format: in vivo; conditions: 1.6 g/a; foliage treatment after growth of 14 days; 3 weeks after treatment
Text: as §12, §13

soybean (Glycine max) [34] = test: Herbicidal effect test by foliage treatment; format: in vivo; conditions: 1.6 g/a; foliage treatment after growth of 14 days; 3 weeks after treatment
Text: as §12, §13

Polygonum blumei [35] = test: Herbicidal effect test by foliage treatment; format: in vivo; conditions: 1.6 g/a; foliage treatment after growth of 14 days; 3 weeks after treatment
Text: as §12, §13

Amaranthus retroflexus [36] = test: Herbicidal effect test by foliage treatment; format: in vivo; conditions: 1.6 g/a; foliage treatment after growth of 14 days; 3 weeks after treatment
Text: as §12, §13

For `COc1cc(OC)nc(NC(=O)NS(=O)(=O)c2c(C3=NOCC(C)(C)O3)c(Cl)nn2C)n1` [Compound 3, N-((4,6-dimethoxypyrimidin-2-yl)aminocarbonyl)-3-chloro-4-(5,5-dimethyl-5H,6H-1,4,2-dioxadin-3-yl)-1-methylpyrazole-5-sulfonamide], the “herbicidal effect, A: Echinochloa crus-galli” value (Echinochloa crus-galli [1]) was 5 (Herbicidal rate 90% or more (almost complete death)), the “herbicidal effect, B: Scirpus juncoides” value (Scirpus juncoides [2]) was 5 (Herbicidal rate 90% or more (almost complete death)) and the “herbicidal effect, C: Monochoria vaginalis” value (Monochoria vaginalis [3]) was 5 (Herbicidal rate 90% or more (almost complete death)). The “herbicidal effect, d: direct sown rice” value (direct sown rice [4]) was 0 (Herbicidal rate 5% or less (little effect)), the “herbicidal effect, I: Ambrosia elatior” value (Ambrosia elatior [5]) was 5 (Herbicidal rate 90% or more (almost complete death)) and the “herbicidal effect, A: Echinochloa crus-galli” value (Echinochloa crus-galli [6]) was 2 (Herbicidal rate 20% or more and less than 40%). For the same molecule, the “herbicidal effect, e: Triticum aestivum (wheat)” value [7] was 0 (Herbicidal rate 5% or less (little effect)), the “herbicidal effect, G: Black-grass” value (Black-grass) was 3 (Herbicidal rate 40% or more and less than 70%) and the “herbicidal effect, H: Abutilon avicennae” value (Abutilon avicennae [8]) was 5 (Herbicidal rate 90% or more (almost complete death)). For the same molecule, the “herbicidal effect, K: Chenopodium album” value (Chenopodium album [9]) was 3 (Herbicidal rate 40% or more and less than 70%), the “herbicidal effect, M: Stellaria media” value (Stellaria media [10]) was 5 (Herbicidal rate 90% or more (almost complete death)) and the “herbicidal effect, b: corn (Zea mays)” value (corn (Zea mays) [11]) was 3 (Herbicidal rate 40% or more and less than 70%). The “herbicidal effect, E: Setaria viridis” value (Setaria viridis [12]) was 0 (Herbicidal rate 5% or less (little effect)), the “herbicidal effect, F: Avena fatua” value (Avena fatua [13]) was 0 (Herbicidal rate 5% or less (little effect)) and the “herbicidal effect, D: Digitaria adscendes” value (Digitaria adscendes [14]) was 2 (Herbicidal rate 20% or more and less than 40%). For the same molecule, the “herbicidal effect, f: Beta vulgaris (beet)” value (Beta vulgaris (beet) [15]) was 4 (Herbicidal rate 70% or more and less than 90%), the “herbicidal effect, c: soybean (Glycine max)” value (soybean (Glycine max) [16]) was 1 (Herbicidal rate 5% or more and less than 20%) and the “herbicidal effect, L: Polygonum blumei” value (Polygonum blumei [17]) was 5 (Herbicidal rate 90% or more (almost complete death)). The “herbicidal effect, J: Amaranthus retroflexus” value (Amaranthus retroflexus [18]) was 4 (Herbicidal rate 70% or more and less than 90%), the “herbicidal effect, A: Echinochloa crus-galli” value (Echinochloa crus-galli [19]) was 5 (Herbicidal rate 90% or more (almost complete death)) and the “herbicidal effect, B: Scirpus juncoides” value (Scirpus juncoides [20]) was 5 (Herbicidal rate 90% or more (almost complete death)). For the same molecule, the “herbicidal effect, C: Monochoria vaginalis” value (Monochoria vaginalis [21]) was 5 (Herbicidal rate 90% or more (almost complete death)), the “herbicidal effect, d: direct sown rice” value (direct sown rice [22]) was 0 (Herbicidal rate 5% or less (little effect)) and the “herbicidal effect, I: Ambrosia elatior” value (Ambrosia elatior [23]) was 5 (Herbicidal rate 90% or more (almost complete death)). For the same molecule, the “herbicidal effect, A: Echinochloa crus-galli” value (Echinochloa crus-galli [24]) was 4 (Herbicidal rate 70% or more and less than 90%), the “herbicidal effect, e: Triticum aestivum (wheat)” value [25] was 0 (Herbicidal rate 5% or less (little effect)) and the “herbicidal effect, H: Abutilon avicennae” value (Abutilon avicennae [26]) was 5 (Herbicidal rate 90% or more (almost complete death)). The “herbicidal effect, K: Chenopodium album” value (Chenopodium album [27]) was 2 (Herbicidal rate 20% or more and less than 40%), the “herbicidal effect, M: Stellaria media” value (Stellaria media [28]) was 5 (Herbicidal rate 90% or more (almost complete death)) and the “herbicidal effect, b: corn (Zea mays)” value (corn (Zea mays) [29]) was 4 (Herbicidal rate 70% or more and less than 90%). The “herbicidal effect, E: Setaria viridis” value (Setaria viridis [30]) was 2 (Herbicidal rate 20% or more and less than 40%), the “herbicidal effect, F: Avena fatua” value (Avena fatua [31]) was 0 (Herbicidal rate 5% or less (little effect)) and the “herbicidal effect, D: Digitaria adscendes” value (Digitaria adscendes [32]) was 3 (Herbicidal rate 40% or more and less than 70%). For the same molecule, the “herbicidal effect, f: Beta vulgaris (beet)” value (Beta vulgaris (beet) [33]) was 3 (Herbicidal rate 40% or more and less than 70%), the “herbicidal effect, c: soybean (Glycine max)” value (soybean (Glycine max) [34]) was 5 (Herbicidal rate 90% or more (almost complete death)) and the “herbicidal effect, L: Polygonum blumei” value (Polygonum blumei [35]) was 3 (Herbicidal rate 40% or more and less than 70%). The “herbicidal effect, J: Amaranthus retroflexus” value (Amaranthus retroflexus [36]) was 0 (Herbicidal rate 5% or less (little effect)).
